Experimental data published in patent US10155728B2, “Compounds for treatment of cancer” (GTX INC., priority 2014, dated 2018).
Several values for one entry are separate records, joined by “and”; a condition that tells them apart may be missing. Identical values can stand only once. Like-named read-outs stand apart in the source and are kept apart here.

Key:
[1] = Microsomal stability assay, rat; assay type: in vitro ADME; details: for T1/2: rat liver microsomes, 0.5 μM
Experimental: (§1) Microsomal Stability Assay. […] For metabolite identification, the reaction mixture was incubated for 2 h with 50 μM test compound concentration under the previously described conditions. The supernatants were analyzed using a Water Xevo G2-S high resolution mass spectrometer.

[2] = system: melanoma and prostate cancer cell lines; assay: SRB cytotoxicity assay, melanoma and prostate cancer cell lines; assay type: cell-based; details: SRB 96 h
Bovine brain tubulin = target: T1, Bovine brain tubulin (Bos taurus, UniProt P81947+Q6B856); assay: In vitro tubulin polymerization assay; assay type: biochemical; details: for inhibition at 5 µM / inhibition at 10 µM: after 20 min incubation, compared to vehicle; for Inhibition of tubulin polymerization relative to colchicine (in words): 5 and 10 μM
T1 construct: Bovine brain tubulin (0.4 mg, >97% pure) (Cytoskeleton, Denver, Colo.); purchased Cytoskeleton, Denver, Colo; host or cells: bovine brain tissue
T1 sequence (Q6B856 whole entry): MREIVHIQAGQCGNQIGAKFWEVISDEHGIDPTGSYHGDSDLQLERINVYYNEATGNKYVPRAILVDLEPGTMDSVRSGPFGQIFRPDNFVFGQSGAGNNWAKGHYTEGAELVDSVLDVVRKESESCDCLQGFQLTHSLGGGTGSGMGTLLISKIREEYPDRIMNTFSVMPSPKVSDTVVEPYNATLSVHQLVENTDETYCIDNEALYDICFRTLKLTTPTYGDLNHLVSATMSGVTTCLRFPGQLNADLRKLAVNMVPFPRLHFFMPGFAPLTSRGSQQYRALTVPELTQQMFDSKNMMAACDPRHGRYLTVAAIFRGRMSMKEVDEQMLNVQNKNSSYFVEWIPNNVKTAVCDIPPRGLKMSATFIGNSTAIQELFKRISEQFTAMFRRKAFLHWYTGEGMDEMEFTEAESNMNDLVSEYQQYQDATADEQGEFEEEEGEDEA
T1 sequence (P81947 whole entry): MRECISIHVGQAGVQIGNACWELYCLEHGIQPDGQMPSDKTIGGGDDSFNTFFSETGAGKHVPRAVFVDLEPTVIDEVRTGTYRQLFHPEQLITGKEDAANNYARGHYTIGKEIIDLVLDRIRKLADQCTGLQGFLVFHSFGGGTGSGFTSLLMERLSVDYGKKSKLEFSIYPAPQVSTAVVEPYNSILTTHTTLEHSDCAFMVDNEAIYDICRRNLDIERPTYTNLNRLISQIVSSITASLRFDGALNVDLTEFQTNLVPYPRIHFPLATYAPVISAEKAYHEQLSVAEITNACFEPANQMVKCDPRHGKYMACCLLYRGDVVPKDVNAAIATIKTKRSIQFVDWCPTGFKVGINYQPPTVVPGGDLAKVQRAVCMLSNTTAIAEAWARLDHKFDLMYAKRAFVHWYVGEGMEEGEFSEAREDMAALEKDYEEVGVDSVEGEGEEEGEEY
Experimental: In Vitro Tubulin Polymerization Assay. […] […] The spectrophotometer was set at 37° C. for tubulin polymerization. […] DMSO was used as a blank control.

[3] = Metabolite identification in liver microsomes; assay type: in vitro ADME; details: 50 μM, 2 h incubation, high resolution MS
Experimental: as §1
We utilized a high resolution mass spectrometer for the identification of the metabolites with a mass error of less than 2 ppm generally. The detailed information regarding the mass spectrum and the chromatogram of each of the metabolites are presented in the supplementary materials. […] M4 (identified by mass spectrum 388.12 [M+1]) was the product that resulted from ketone reduction and it was further hydroxylated to M5 (identified by mass spectrum 404.12 [M+1]) at a position that was unidentifiable due to limited information. […] M7 (deamination) (identified by mass spectrum 370.11 [M+1]) was a minor product. […] M9 (identified by mass spectrum 386.15 [M+1]) and M10 (identified by mass spectrum 416.16 [M+1]) had more than one possible structure as indicated in the chromatograms. For 7 (FIG. 11), various metabolites including 0-demethylation (M12) (identified by mass spectrum 387.15 [M+1]), mono-hydroxylation (M14) (identified by mass spectrum 417.16 [M+1]), O-demethylation followed by mono-hydroxylation (M11) (identified by mass spectrum 403.14 [M+1]), and dihydroxylation (M13) (identified by mass spectrum 433.15 [M+1]) were detected.

[4] = Microsomal stability assay, mouse; assay type: in vitro ADME; details: for T1/2: mouse liver microsomes, 0.5 μM
Experimental: as §1

[5] = Microsomal stability assay, human; assay type: in vitro ADME; details: for T1/2: human liver microsomes, 0.5 μM
Experimental: as §1

A375 cells = assay: SRB cytotoxicity assay, A375 melanoma cells; assay type: cell-based; details: for IC50: SRB assay after 96 h of treatment, read-out: IC50 against A375 cells
LNCaP cells = assay: SRB cytotoxicity assay, LNCaP prostate cancer cells; assay type: cell-based, human; details: androgen sensitive prostate cancer LNCaP cells
[6] = Microsomal stability, liver microsomes over tested species; assay type: in vitro ADME
Experimental: as §1

[7] = system: K562 human leukemia cells; details: read-out: IC50 against K562 human leukemia cells; cited from earlier work

| T1/2 [5] | T1/2 [1] [min] | T1/2 [4] | Compound | Antiproliferative activity (in words) [2] | Major metabolites / metabolic pathway [3] | other results |
| --- | --- | --- | --- | --- | --- | --- |
| 50.7 ± 1.2 min | – | – | COc1cc(-c2cccc3[nH]c(-c4c[nH]c5ccccc45)nc23)cc(OC)c1OC [Compound 4, 2-(1H-Indol-3-yl)-4-(3,4,5-trimethoxyphenyl)-1H-benzo[d]imidazole] | comparable potency | O-demethylation (M9) and mono-hydroxylation (M10) | half-life at 0.5 μM ([1]; pH 7.4, rat liver microsomes): 72.3 ± 4.6 min; inhibition at 5 µM (Bovine brain tubulin): 30%; inhibition at 10 µM (Bovine brain tubulin): 60%; Inhibition of tubulin polymerization relative to colchicine (in words) (Bovine brain tubulin): stronger inhibition than colchicine; half-life at 0.5 μM ([4]; pH 7.4, mouse liver microsomes): 53.5 ± 2.4 min; half-life at 0.5 μM ([5]; human, pooled liver microsomes, pH 7.4, human liver microsomes): 51 min |
| 45 min and 45.3 ± 2.0 min | 30.4 ± 1.9 | 19.7 ± 0.7 min | COc1cc(-c2nccc3[nH]c(-c4ccc5[nH]ccc5c4)nc23)cc(OC)c1OC [Compound 7, 2-(1H-Indol-5-yl)-4-(3,4,5-trimethoxyphenyl)-1H-imidazo[4,5-c]pyridine] | increased potency | formed very evenly with similar relative amount | inhibition at 5 µM (Bovine brain tubulin): ~33%; inhibition at 10 µM (Bovine brain tubulin): ~81%; Inhibition of tubulin polymerization relative to colchicine (in words) (Bovine brain tubulin): stronger inhibition than colchicine; IC50 improvement compared to 10 and 4 (A375 cells; melanoma A375 cells): at least 5 fold; IC50 improvement compared to 10 and 4 (LNCaP cells): at least 5 fold |
| 17 min | 31 | <<5 min | COc1cc(C(=O)c2csc(-c3ccccc3)n2)cc(OC)c1OC [Compound 10, reference compound] | – | – | IC50 (A375 cells): 0.028 µM |
| – | – | – | COc1cc(C(=O)c2csc(-c3ccccc3)n2)cc(OC)c1OC(=O)CCl [Compound 12, 2,6-Dimethoxy-4-(2-phenylthiazole-4-carbonyl)phenyl 2-chloroacetate] | dropped significantly | – | – |
| 7.8 ± 0.3 min | 9.7 ± 0.4 | 4.0 ± 0.3 min | COCOc1c(OC)cc(C(=O)c2csc(-c3ccccc3)n2)cc1OC [Compound 15, (3,5-Dimethoxy-4-(methoxymethoxy)phenyl)(2-phenylthiazol-4-yl)methanone] | improved activity | removal of the MOM group to form M1 | IC50 (A375 cells; Homo sapiens, A-375): 0.02 µM; Metabolic stability (in words) ([6]; any of the tested liver microsomes): did not improve its metabolic stability; half-life at 0.5 μM ([6]; pH 7.4, human, mouse, rat liver microsomes, read-out: T1/2 over tested species liver microsomes): < 10 min |
| – | – | – | COc1cc(C(=O)c2csc(-c3ccccc3)n2)cc(OC)c1OCCN1C(=O)c2ccccc2C1=O [Compound 17, 2-(2-(2,6-Dimethoxy-4-(2-phenylthiazole-4-carbonyl)phenoxy)ethyl)isoindoline-1,3-dione] | micromolar range potency | – | – |
| – | – | – | COc1cc(C(=O)c2c[nH]c(Nc3ccccc3)n2)cc(OC)c1OC [Compound 27, (2-(Phenylamino)-1H-imidazol-4-yl)(3,4,5-trimethoxyphenyl)methanone] | did not demonstrate any activity | – | – |
| – | – | – | COc1cc(C(=O)c2csc(Nc3ccc4[nH]ccc4c3)n2)cc(OC)c1OC [Compound 33, (2-((1H-Indol-5-yl)amino)thiazol-4-yl)(3,4,5-trimethoxyphenyl)methanone] | excellent growth inhibition | – | IC50 change compared to PAT (prostate cancer cells): 2-3 fold |
| – | – | – | COc1ccc(/C=C(\C)C(=O)c2cc(OC)c(OC)c(OC)c2)cc1O [SD400] | – | – | IC50 [7]: 0.00021 µM |
